How the values were obtained:
TMD8 cells = assay: MTT viability assay, TMD8 cells, 72 hours; type: cell-based, human; details: Homo sapiens, TMD8, 72 h, MTT
Protocol: Cell viability was assessed after 72 hours of incubation.

OCT3 = target: T1, OCT3 (Homo sapiens, UniProt O75751); assay: In vitro transport assay, cells overexpressing OCT3; type: cell-based; details: OCT3 vs empty vector; 15 minutes
T1 construct: expressed in transfected cells; compared with empty vector control
T1 sequence (O75751 1-556): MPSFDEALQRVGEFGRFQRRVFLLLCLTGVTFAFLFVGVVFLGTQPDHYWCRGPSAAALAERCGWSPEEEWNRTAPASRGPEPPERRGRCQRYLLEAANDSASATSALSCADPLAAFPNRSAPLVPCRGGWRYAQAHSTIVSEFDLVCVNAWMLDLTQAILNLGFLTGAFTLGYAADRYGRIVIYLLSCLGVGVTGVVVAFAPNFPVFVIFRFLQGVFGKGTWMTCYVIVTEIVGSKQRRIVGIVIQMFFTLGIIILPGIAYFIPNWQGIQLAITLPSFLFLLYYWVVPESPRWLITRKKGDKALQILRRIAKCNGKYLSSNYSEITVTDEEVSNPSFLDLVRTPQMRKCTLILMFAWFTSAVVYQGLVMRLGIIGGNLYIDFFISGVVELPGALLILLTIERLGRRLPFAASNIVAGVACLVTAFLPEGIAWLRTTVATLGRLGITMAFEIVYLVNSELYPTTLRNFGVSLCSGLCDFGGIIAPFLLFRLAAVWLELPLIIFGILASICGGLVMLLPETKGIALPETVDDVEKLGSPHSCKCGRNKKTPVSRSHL

Caco-2 = test system: Caco-2; set-up: method as in earlier work; details: PBPK model parameter; ref [17, 18] and Drugbank; cited from earlier work
[1] = Cardiac distribution of ibrutinib in mice (heart-to-plasma ratio); details: female wild-type mice; six hours after ibrutinib 10 mg/kg orally; cobicistat 30 mg/kg pretreatment vs vehicle; P < 0.01
[2] = set-up: method as in earlier work; details: PBPK model parameter, ref [17, 18] and Drugbank, cited from earlier work

Structure (SMILES)	IC50 (TMD8 cells; None (Fig. 2A, ketoconazole panel))	IC50 (TMD8 cells; None (Fig. 2B, cobicistat panel))	IC50 (TMD8 cells; with 0.1 μmol/L cobi)	IC50 (TMD8 cells; with 0.1 μmol/L keto)	IC50 (TMD8 cells; with 1 μmol/L cobi)	IC50 (TMD8 cells; with 1 μmol/L keto)	IC50 (TMD8 cells; with 10 μmol/L cobi)	IC50 (TMD8 cells; with 10 μmol/L keto)	uptake of ibrutinib by transporter-overexpressing cells (OCT3)	Caco-2 (Caco-2)	heart levels of ibrutinib normalized to plasma levels [1]	Clpo ([2]; oral clearance)	Vss ([2]; steady-state volume of distribution)
C=CC(=O)N1CCC[C@@H](n2nc(-c3ccc(Oc4ccccc4)cc3)c3c(N)ncnc32)C1 [Ibrutinib]	1.4 nM	1.4 nM	1.3 nM	1.1 nM	1.1 nM	1 nM	0.82 nM	0.88 nM	not substantially facilitated	32.6 ×10⁻⁶ cm/s	substantially lower levels	–	–
Nc1ncnc2c1c(-c1ccc(Oc3ccccc3)cc1)nn2[C@@H]1CCCN(C(=O)C(O)CO)C1 (stereo partly shown) [PCI-45227]	–	–	–	–	–	–	–	–	–	–	–	Clpo (L/h) : 433	9.0 L/kg

From article PMC8691714 (Cancer Research Communications, 2021)
